Values joined by “and” are separate entries in the source; they are usually repeats but may differ in a detail not shown here. Equal entries are not always repeated. Active and inactive are the calls of the source. How the calls were made is not given here.
Test system: in vivo angiogenesis, blood vessel count
Assay: angiogenesis inhibition in living animals, in vivo study, HTS (AID 732);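 further: zebrafish embryos dosed at one day post fertilization; 0% = reference inhibitor and 100% = plate mean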
Details: hits give low values;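 tested at 30 µM in the well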

CCOC(=O)c1ncn2c1[C@@H]1CCCN1C(=O)c1cc(OC)ccc1-2
vessel count % control: 102% (inactive)

CNCCc1ccc(O)c(O)c1
vessel count % control: 96.5% (inactive)

Fc1ccc(C(c2ccc(F)cc2)N2CCN(C/C=C/c3ccccc3)CC2)cc1
vessel count % control: 91.5% (inactive)

CC(N)C1CCC(C(=O)Nc2ccncc2)CC1 (stereo not given)
vessel count % control: 111% (inactive)

C[C@@H](CN1CCC(Cc2ccccc2)CC1)[C@@H](O)c1ccc(O)cc1
vessel count % control: 112% (inactive)

c1cnc(N2CCN(Cc3ccc4c(c3)OCO4)CC2)nc1
vessel count % control: 106% (inactive)

NC(=O)c1cc[n+](CC2=C(C(=O)O)N3C(=O)[C@@H](NC(=O)[C@@H](c4ccccc4)S(=O)(=O)[O-])[C@H]3SC2)cc1
vessel count % control: 99.9% (inactive)

O=C(O)c1cc(=O)c2ccccc2[nH]1
vessel count % control: 97.4% (inactive)

CC1=C(C(=O)O)N2C(=O)[C@@H](NC(=O)C(N)c3ccccc3)[C@H]2SC1 (stereo not given in full)
vessel count % control: 93.6% (inactive)

C=C(C)[C@H]1CN[C@H](C(=O)O)[C@H]1CC(=O)O
vessel count % control: 123% (inactive)

O=Nc1c(-c2c(O)[nH]c3ccc(F)cc23)[nH]c2ccccc12
vessel count % control: 48.1% (inactive)

Cc1ccc(C(=O)O[C@H](C(=O)O)[C@H](OC(=O)c2ccc(C)cc2)C(=O)O)cc1 (tested in a mixture with another compound)
vessel count % control: 109% (inactive)

COc1cc2nc(N3CCN(C(=O)c4ccco4)CC3)nc(N)c2cc1OC
vessel count % control: 107% (inactive)

C=CC1(C)CC(=O)C2(O)C(C)(O1)C(OC(C)=O)C(O)C1C(C)(C)CCC(O)C12C (stereo not given)
vessel count % control: 97% (inactive)

C[N+](C)(C)CCC(=O)c1cccc2ccccc12
vessel count % control: 0% (inactive)

O=C(O)CCCCCC[C@H]1C(=O)NC(=O)N1CC[C@@H](O)C1CCCCC1
vessel count % control: 93.1% (inactive)

O=[N+]([O-])c1ccc2nc(N3CCNCC3)ccc2c1
vessel count % control: 118% (inactive)

OC(CN1CCN(c2cccc(Cl)c2)CC1)C(c1ccccc1)c1ccccc1 (stereo not given)
vessel count % control: 67.8% (inactive)

c1ccc2c(c1)[I+]c1ccccc1-2
vessel count % control: 112% (inactive)

O=C(O)CP(=O)(O)O
vessel count % control: 79.8% (inactive)

NC(C(=O)N[C@@H]1C(=O)N2C(C(=O)O)=C(Cl)CS[C@H]12)c1ccccc1 (stereo not given in full)
vessel count % control: 108% (inactive)

O=C(O)/C(=C/c1c(C(=O)O)[nH]c2cc(Cl)cc(Cl)c12)c1ccccc1
vessel count % control: 108% (inactive)

COc1ccc2[nH]cc(CCN)c2c1
vessel count % control: 108% (inactive)

c1ccc2cc(CC3=NCCN3)ccc2c1
vessel count % control: 120% (inactive)

O=C1CCCN1CC#CCN1CCCC1
vessel count % control: 99.6% (inactive)

C=CCN1C[C@@H](C)N([C@H](c2ccc(C(=O)N(CC)CC)cc2)c2cccc(OC)c2)C[C@@H]1C
vessel count % control: 85.2% (inactive)

Nc1ccc(CCNc2ncnc3c2ncn3C2OC(CO)C(O)C2O)cc1 (stereo not given)
vessel count % control: 110% (inactive)

N[C@H](CO)C(=O)O
vessel count % control: 105% (inactive)

CO[C@H]1CC=C2CCN3CCC4=C(CC(=O)OC4)[C@]23C1
vessel count % control: 105% (inactive)

CN1CCc2cc(O)c(O)cc2C(c2ccccc2)C1 (stereo not given)
vessel count % control: 107% (inactive)

CSc1ccc2c(c1)N(CCC1CCCCN1C)c1ccccc1S2 (stereo not given)
vessel count % control: 102% (inactive)

CC[C@@H](C)[C@H]1O[C@]2(CC[C@@H]1C)C[C@@H]1C[C@@H](C/C=C(\C)[C@@H](O[C@H]3C[C@H](OC)[C@@H](O[C@H]4C[C@H](OC)[C@@H](O)[C@H](C)O4)[C@H](C)O3)[C@@H](C)/C=C/C=C3\CO[C@@H]4[C@H](O)C(C)=C[C@@H](C(=O)O1)[C@]34O)O2
vessel count % control: 78.7% (inactive)

COc1ccc(CN(CCN(C)C)c2ccccn2)cc1
vessel count % control: 106% (inactive)

CSC(N)=NCCC[C@H](N)C(=O)O
vessel count % control: 107% (inactive)

CC#CCOC(=O)c1c(C)nc2sc3c(c2c1N)CCC(O)C3 (stereo not given)
vessel count % control: 116% (inactive)

CC(C)NC[C@H](O)c1ccc(O)c(O)c1
vessel count % control: 98.1% (inactive) and 72.7% (inactive)

CCCCN1CCC(COC(=O)c2cc(Cl)c(N)c3c2OCCO3)CC1
vessel count % control: 105% (inactive)

C[C@H]1C2Cc3ccc(O)cc3C1(C)CCN2CC1CC1 (stereo not given in full)
vessel count % control: 70.9% (inactive)

CN(C)CCCN1c2ccccc2Sc2ccc(Cl)cc21
vessel count % control: 84.3% (inactive)

NC(=O)CNCCC(c1ccccc1)c1ccccc1
vessel count % control: 119% (inactive)

N#CC(C#N)=Cc1ccc(O)c(O)c1
vessel count % control: 119% (inactive)

CN1C[C@H](CNC(=O)OCc2ccccc2)C[C@@H]2c3cccc4c3c(cn4C)C[C@H]21
vessel count % control: 111% (inactive)

NC(CO)C(=O)NNCc1ccc(O)c(O)c1O (stereo not given)
vessel count % control: 120% (inactive)

CN=C(NC#N)Nc1ccc(C2=NNC(=O)CC2C)cc1 (stereo not given)
vessel count % control: 106% (inactive)

NC1CC1c1ccccc1 (stereo not given)
vessel count % control: 94.1% (inactive)

Cc1ccc(S(=O)(=O)N[C@@H](Cc2ccccc2)C(=O)CCl)cc1
vessel count % control: 97.1% (inactive)

CC(C)[N+](C)(CCOC(=O)C1c2ccccc2Oc2ccccc21)C(C)C
vessel count % control: 134% (inactive)

NC(=O)C1=CN(C2OC(COP(=O)(O)OP(=O)(O)OC[C@H]3O[C@@H](n4cnc5c(N)ncnc54)C(OP(=O)(O)O)[C@H]3O)C(O)C2O)C=CC1 (stereo not given in full)
vessel count % control: 101% (inactive)

CCCCCCCCCCCCCCCCCC(=O)OC(CC(=O)O)C[N+](C)(C)C (stereo not given)
vessel count % control: 71.9% (inactive)

Oc1ccc(C2CNCc3sccc32)cc1O (stereo not given)
vessel count % control: 94.7% (inactive)

CC1=C(CC(=O)O)c2cc(F)ccc2/C1=C\c1ccc(S(C)(=O)=O)cc1
vessel count % control: 112% (inactive)

CC(=O)N[C@@H](Cc1c[nH]c2ccccc12)C(=O)OCc1cc(C(F)(F)F)cc(C(F)(F)F)c1
vessel count % control: 70.4% (inactive)

N[C@@H](Cc1ccc(O)c(O)c1)C(=O)O
vessel count % control: 118% (inactive)

CN1C2CCC1CC(OC(c1ccccc1)c1ccccc1N)C2 (stereo not given)
vessel count % control: 91.2% (inactive)

O=C(C1CCCCC1)N1CC(=O)N2CCc3ccccc3C2C1 (stereo not given)
vessel count % control: 101% (inactive)

CC(C)NNC(=O)c1ccncc1
vessel count % control: 118% (inactive)

c1ccc([C@H]2CN3CCSC3=N2)cc1
vessel count % control: 98.4% (inactive)

NC(N)=[N+]1CCc2ccccc2C1
vessel count % control: 113% (inactive)

Cc1nc2c([nH]1)c(=O)n(C)c(=O)n2Cc1ccco1
vessel count % control: 93.1% (inactive)

Nc1nc(Cl)nc2c1ncn2[C@@H]1O[C@H](CO)[C@H](O)C1O (stereo not given in full)
vessel count % control: 107% (inactive)

C[C@@]1(C2CCCC2)Cc2cc(OCC(=O)O)c(Cl)c(Cl)c2C1=O
vessel count % control: 75.4% (inactive)

C=C(C)C1CC=C(C(=O)O)CC1 (stereo not given)
vessel count % control: 109% (inactive)

S=C=Nc1cccc(C2(N3CCCCC3)CCCCC2)c1
vessel count % control: 91% (inactive)

CNC(=O)[C@H]1O[C@@H](n2cnc3c(NCc4ccc(N)cc4)ncnc32)C(O)[C@H]1O (stereo not given in full)
vessel count % control: 134% (inactive)

O=C(O)c1ccccc1Nc1ccccc1
vessel count % control: 109% (inactive)

NC(=O)c1ccc(OCC(O)CN2CC=C(c3ccc(F)cc3)CC2)cc1 (stereo not given)
vessel count % control: 79.7% (inactive)

CC1C(=O)N(C)C(=O)c2nc[nH]c21 (stereo not given)
vessel count % control: 98.5% (inactive)

C[C@]12CC[C@H](O)CC1=CC[C@@H]1[C@@H]2CC[C@]2(C)C(=O)CC[C@@H]12
vessel count % control: 106% (inactive)

NCCS
vessel count % control: 106% (inactive)

CN(C)c1nc(N(C)C)nc(N(C)C)n1
vessel count % control: 86% (inactive)

c1ccc2c(c1)OCC(C1=NCCN1)O2 (stereo not given)
vessel count % control: 146% (inactive)

COc1ccccc1N1CCN(CCN(C(=O)C2CCCCC2)c2ccccn2)CC1
vessel count % control: 87.8% (inactive)

O=C1C2C=CC=CC2=NC(=S)N1CCN1CCC(=C(c2ccc(F)cc2)c2ccc(F)cc2)CC1 (stereo not given)
vessel count % control: 78.2% (inactive)

O=C(CCc1ccc(O)cc1)c1c(O)cc(O)cc1O
vessel count % control: 124% (inactive)

O=C(CCCN1CCC(O)(c2ccc(Cl)cc2)CC1)c1ccc(F)cc1
vessel count % control: 77.9% (inactive)

Oc1[nH]c2c(Cl)cc(Cl)cc2c1C1=Nc2ccc(Br)cc2/C1=N\OCCBr
vessel count % control: 121% (inactive)

CCCCCCCCCCCCCCCCOCC(COCC(F)(F)F)OP(=O)(O)OCO (stereo not given)
vessel count % control: 109% (inactive)

C[C@]12CCC(=O)C=C1CC[C@@H]1[C@@H]2[C@@H](O)C[C@@]2(C)[C@H]1CC[C@]2(O)C(=O)CO
vessel count % control: 102% (inactive)

C[C@@H](NC(=O)/C(C#N)=C/c1ccc(O)c(O)c1)c1ccccc1
vessel count % control: 128% (inactive)

CNCCC(Oc1ccccc1C)c1ccccc1 (stereo not given)
vessel count % control: 122% (inactive)

CC1CN(S(=O)(=O)c2cccc3cnccc23)CCN1 (stereo not given)
vessel count % control: 97.8% (inactive)

C[N+](C)(C)CCO
vessel count % control: 96.9% (inactive)

CNCCCN1c2ccccc2CCc2ccccc21
vessel count % control: 82.9% (inactive)

CCc1cccc2c3c([nH]c12)C(CC)(CC(=O)O)OCC3 (stereo not given)
vessel count % control: 83.6% (inactive)

NC(=S)c1ccc[n+]([C@@H]2O[C@@H](COP(=O)([O-])OP(=O)(O)OC[C@H]3O[C@@H](n4cnc5c(N)ncnc54)C(OP(=O)(O)O)[C@H]3O)C(O)C2O)c1 (stereo not given in full)
vessel count % control: 101% (inactive)

NC(=O)CI
vessel count % control: 108% (inactive)

C(=C\c1ccccc1)/CN1CCN(C(c2ccccc2)c2ccccc2)CC1
vessel count % control: 88.9% (inactive)

C[C@H](Cc1ccccc1)Nc1ncnc2c1ncn2[C@@H]1O[C@H](CO)[C@H](O)C1O (stereo not given in full)
vessel count % control: 99.9% (inactive)

O=C1CCC(N2C(=O)c3ccccc3C2=O)C(=O)N1 (stereo not given)
vessel count % control: 108% (inactive)

O=Nc1ccc2oc(=O)ccc2c1
vessel count % control: 95% (inactive)

CC[N+](C)(C)Cc1ccccc1Br
vessel count % control: 116% (inactive)

CC[N+](CC)(CC)CCOc1cccc(OCC[N+](CC)(CC)CC)c1OCC[N+](CC)(CC)CC
vessel count % control: 101% (inactive)

O=c1c2ccccc2nc2n1CCc1c-2[nH]c2ccccc12
vessel count % control: 64.3% (inactive)

C[C@@H]1O[C@H](C[N+](C)(C)C)C[C@H]1O
vessel count % control: 104% (inactive)

OCc1cc(C(O)CNCCCCCCOCCCCc2ccccc2)ccc1O (stereo not given)
vessel count % control: 126% (inactive)

Reference: PubChem BioAssay AID732 (Emory University Molecular Libraries Screening Center, 2007)
